Test results as given in ChEMBL document CHEMBL5376011, “Discovery of Anti-Hypercholesterolemia Agents Targeting LXRα from Marine Microorganism-Derived Natural Products” (J Nat Prod, 2024).
Active and inactive are the calls of the source. The rule behind the calls is not given here.

Legend:
Mus musculus [1] = test: Antihypercholesterolemic activity against high cholesterol diet fed LXRalpha knockout C57BL/6J mouse assessed as reduction in serum triglycerides level at 300 microg/kg, ip administered every 2 days for 15 days; format: functional, organism-based; settings: dose 300.0 µg/kg, time 15.0 day
Mus musculus [2] = test: Antihypercholesterolemic activity against high cholesterol diet fed C57BL/6J mouse assessed as improvement in hepatocyte degeneration at 300 microg/kg, ip administered every 2 days for 15 days by Oil red staining based analysis; format: functional, organism-based; settings: dose 300.0 µg/kg, time 15.0 day
[3] = target: T1, Oxysterols receptor LXR-alpha (Homo sapiens) (UniProt Q13133); test: Agonist activity at LXRalpha in human HepG2 cells assessed as upregulation of ABCA1 mRNA expression by measuring fold change at 25 uM incubated for 24 hrs by RT-qPCR analysis; format: cell-based; settings: filed as agonist
T1 sequence (whole entry): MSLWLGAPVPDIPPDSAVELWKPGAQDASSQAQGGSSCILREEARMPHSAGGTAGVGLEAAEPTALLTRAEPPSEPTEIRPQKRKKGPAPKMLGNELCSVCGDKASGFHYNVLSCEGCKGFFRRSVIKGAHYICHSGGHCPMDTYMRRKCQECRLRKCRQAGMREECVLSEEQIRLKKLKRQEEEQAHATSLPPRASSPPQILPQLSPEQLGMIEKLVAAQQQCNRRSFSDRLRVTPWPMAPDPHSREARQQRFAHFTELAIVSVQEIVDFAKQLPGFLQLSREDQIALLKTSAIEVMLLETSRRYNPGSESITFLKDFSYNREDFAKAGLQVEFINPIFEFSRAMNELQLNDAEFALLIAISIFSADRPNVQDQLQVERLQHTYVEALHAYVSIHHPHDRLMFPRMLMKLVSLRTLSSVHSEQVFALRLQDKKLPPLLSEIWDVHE

Mus musculus [4] = test: Antihypercholesterolemic activity against high cholesterol diet fed C57BL/6J mouse assessed as reduction in SREBP1 protein level at 300 microg/kg, ip administered every 2 days for 15 days by Western blot analysis; format: functional, organism-based; settings: dose 300.0 µg/kg, time 15.0 day
Mus musculus [5] = test: Antihypercholesterolemic activity against high cholesterol diet fed LXRalpha knockout C57BL/6J mouse assessed as upregulation in CYP7A1 protein level at 300 microg/kg, ip administered every 2 days for 15 days by Western blot analysis; format: functional, organism-based; settings: dose 300.0 µg/kg, time 15.0 day
Mus musculus [6] = test: Antihypercholesterolemic activity against high cholesterol diet induced C57BL/6J mouse assessed as reduction in total cholesterol level in plasma at 300 microg/kg, ip administered every 2 days for 15 days; format: functional, organism-based; settings: dose 300.0 µg/kg, time 15.0 day
Mus musculus [7] = test: Antihypercholesterolemic activity against high cholesterol diet fed C57BL/6J mouse assessed as reduction in hepatocyte lysis necrosis at 300 microg/kg, ip administered every 2 days for 15 days by Oil red staining based analysis; format: functional, organism-based; settings: dose 300.0 µg/kg, time 15.0 day
Mus musculus [8] = test: Antihypercholesterolemic activity against high cholesterol diet fed LXRalpha knockout C57BL/6J mouse assessed as upregulation in ABCA1 protein level at 300 microg/kg, ip administered every 2 days for 15 days by Western blot analysis; format: functional, organism-based; settings: dose 300.0 µg/kg, time 15.0 day
Mus musculus [9] = test: Antihypercholesterolemic activity against high cholesterol diet fed C57BL/6J mouse assessed as improvement in hepatocyte degeneration at 300 microg/kg, ip administered every 2 days for 15 days by H&E staining based analysis; format: functional, organism-based; settings: dose 300.0 µg/kg, time 15.0 day
Mus musculus [10] = test: Antihypercholesterolemic activity against high cholesterol diet fed C57BL/6J mouse assessed as improvement in hepatocyte liposis at 300 microg/kg, ip administered every 2 days for 15 days by Oil red staining based analysis; format: functional, organism-based; settings: dose 300.0 µg/kg, time 15.0 day
Mus musculus [11] = test: Antihypercholesterolemic activity against high cholesterol diet fed LXRalpha knockout C57BL/6J mouse assessed as improvement in hepatocellular degeneration at 300 microg/kg, ip administered every 2 days for 15 days by H&E staining based analysis; format: functional, organism-based; settings: dose 300.0 µg/kg, time 15.0 day
HepG2 [12] = test: Improvement of lipid metabolism in palmitic acid and oleic acid induced human HepG2 cell model of hepatic steatosis assessed as reduction in total cellular cholesterol level at 25 uM preincubated with palmitic acid and oleic acid for 48 hrs followed by compound addition and measured after 24 hrs; format: functional, cell-based
[13] = target: T1, Oxysterols receptor LXR-alpha (Homo sapiens); test: Agonist activity at LXRalpha in human HepG2 cells assessed as upregulation of ABCA1 protein expression level at 25 uM incubated for 24 hrs by Western blot analysis; format: cell-based; settings: filed as agonist
Mus musculus [14] = test: Antihypercholesterolemic activity against high cholesterol diet fed LXRalpha knockout C57BL/6J mouse assessed as improvement in liver lipid droplet accumulation at 300 microg/kg, ip administered every 2 days for 15 days by Oil red staining based analysis; format: functional, organism-based; settings: dose 300.0 µg/kg, time 15.0 day
Mus musculus [15] = test: Antihypercholesterolemic activity against high cholesterol diet fed C57BL/6J mouse assessed as reduction in hepatocyte lysis necrosis at 300 microg/kg, ip administered every 2 days for 15 days by H&E staining based analysis; format: functional, organism-based; settings: dose 300.0 µg/kg, time 15.0 day
[16] = Cytotoxicity against human HepG2 cells assessed as reduction in cell viability incubated for 24 hrs by CCK8 assay; format: toxicity, cell-based
Mus musculus [17] = test: Antihypercholesterolemic activity against high cholesterol diet fed LXRalpha knockout C57BL/6J mouse assessed as reduction in serum total cholesterol level at 300 microg/kg, ip administered every 2 days for 15 days; format: functional, organism-based; settings: dose 300.0 µg/kg, time 15.0 day
HepG2 [18] = test: Effect on ABCG1 mRNA expression in human HepG2 cells at 25 uM incubated for 24 hrs by RT-qPCR analysis; format: functional, cell-based
Mus musculus [19] = test: Antihypercholesterolemic activity against high cholesterol diet fed C57BL/6J mouse assessed as reduction of fine vacuoles in the cytoplasm at 300 microg/kg, ip administered every 2 days for 15 days by Oil red staining based analysis; format: functional, organism-based; settings: dose 300.0 µg/kg, time 15.0 day
Mus musculus [20] = test: Antihypercholesterolemic activity against high cholesterol diet fed LXRalpha knockout C57BL/6J mouse assessed as reduction in serum high density lipoprotein cholesterol level at 300 microg/kg, ip administered every 2 days for 15 days; format: functional, organism-based; settings: dose 300.0 µg/kg, time 15.0 day
[21] = target: T2, Oxysterols receptor LXR-alpha (Homo sapiens, UniProt Q13133); test: Binding affinity to full length human LXRalpha assessed as dissociation constant by SPR analysis
T2 sequence (Q13133 whole entry): T1 sequence (whole entry)

[22] = target: T1, Oxysterols receptor LXR-alpha (Homo sapiens); test: Agonist activity at LXRalpha in human HepG2 cells assessed as upregulation of CYP7A1 mRNA expression by measuring fold change at 25 uM incubated for 24 hrs by RT-qPCR analysis; format: cell-based; settings: filed as agonist

COc1ccc2c3c([nH]c2c1)[C@H](C=C(C)C)N1C(=O)[C@@H]2CCCN2C(=O)[C@]1(O)[C@H]3O
Activity (Mus musculus [1]): inactive | Activity (Mus musculus [2]): Active | fold change (FC) [3]: 2.13 | Activity (Mus musculus [4]): Active | Activity (Mus musculus [5]): inactive | Activity (Mus musculus [6]): Active | Activity (Mus musculus [7]): Active | Activity (Mus musculus [8]): inactive | Activity (Mus musculus [9]): Active | Activity (Mus musculus [10]): Active | Activity (Mus musculus [11]): Active | Activity (HepG2 [12]): Active | Activity [13]: Active | Activity (Mus musculus [14]): Active | Activity (Mus musculus [15]): Active | IC50 at 24 h [16]: > 50000 nM | Activity (Mus musculus [17]): inactive | Activity (HepG2 [18]): inactive | Activity (Mus musculus [19]): Active | Activity (Mus musculus [20]): inactive | Kd [21]: 5.6 nM | fold change (FC) [22]: 5.02
